Laboratory results published in PubChem BioAssay (NCI).
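Test compounds were applied to cells in 96-well plates for 48 hours at 5 doses. TGI denotes the concentration required for complete inhibition of growth.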

Experiments:
Assay in all cases: NCI tumour cell line growth inhibition, 48 h
[1] = test system: 786-0 renal
[2] = test system: A498 renal
[3] = test system: A549 NSCLC
[4] = test system: ACHN renal
[5] = test system: CCRF-CEM leukemia
[6] = test system: COLO 205 colon
[7] = test system: DLD-1 colon
[8] = test system: DMS 114 small cell lung
[9] = test system: DMS 273 small cell lung
[10] = test system: EKVX NSCLC
[11] = test system: HCC-2998 colon
[12] = test system: HCT-116 colon
[13] = test system: HCT-15 colon
[14] = test system: HL-60(TB) leukemia
[15] = test system: HOP-18 NSCLC
[16] = test system: HOP-62 NSCLC
[17] = test system: HOP-92 NSCLC
[18] = test system: HT29 colon
[19] = test system: IGROV1 ovarian
[20] = test system: K-562 leukemia
[21] = test system: KM12 colon
[22] = test system: KM20L2 colon
[23] = test system: LOX IMVI melanoma
[24] = test system: LXFL 529 NSCLC
[25] = test system: M14 melanoma
[26] = test system: M19-MEL melanoma
[27] = test system: MALME-3M melanoma
[28] = test system: MOLT-4 leukemia
[29] = test system: NCI-H226 lung
[30] = test system: NCI-H23 lung
[31] = test system: NCI-H460 lung
[32] = test system: NCI-H522 lung
[33] = test system: OVCAR-3 ovarian
[34] = test system: OVCAR-4 ovarian
[35] = test system: OVCAR-8 ovarian
[36] = test system: RPMI-8226 leukemia
[37] = test system: RXF 393 renal
[38] = test system: SF-268 CNS
[39] = test system: SF-295 CNS
[40] = test system: SF-539 CNS
[41] = test system: SK-MEL-2 melanoma
[42] = test system: SK-MEL-28 melanoma
[43] = test system: SK-OV-3 ovarian
[44] = test system: SN12C renal
[45] = test system: SNB-19 CNS
[46] = test system: SNB-75 CNS
[47] = test system: SNB-78 CNS
[48] = test system: SR leukemia
[49] = test system: SW-620 colon
[50] = test system: TK-10 renal
[51] = test system: U251 CNS
[52] = test system: UACC-257 melanoma
[53] = test system: UACC-62 melanoma
[54] = test system: UO-31 renal
[55] = test system: XF 498 CNS
[56] = test system: OVCAR-5 ovarian
[57] = test system: SK-MEL-5 melanoma

COc1ccc(C(=O)N/N=C/c2c(C)n(C)n(-c3ccccc3)c2=O)cc1 was tested, and the TGI [1] was > 100 µM, the TGI [2] was > 100 µM and the TGI [3] was > 100 µM. The TGI [4] was > 100 µM, the TGI [5] was > 100 µM and the TGI [6] was > 100 µM. For the same molecule, the TGI [7] was > 100 µM, the TGI [8] was > 100 µM and the TGI [9] was > 100 µM. For the same molecule, the TGI [10] was > 100 µM, the TGI [11] was > 100 µM and the TGI [12] was > 100 µM. For the same molecule, the TGI [13] was > 100 µM, the TGI [14] was > 100 µM and the TGI [15] was > 100 µM. The TGI [16] was > 100 µM, the TGI [17] was > 100 µM and the TGI [18] was > 100 µM. The TGI [19] was > 100 µM, the TGI [20] was > 100 µM and the TGI [21] was > 100 µM. For the same molecule, the TGI [22] was > 100 µM, the TGI [23] was > 100 µM and the TGI [24] was > 100 µM. The TGI [25] was > 100 µM, the TGI [26] was > 100 µM and the TGI [27] was > 100 µM. For the same molecule, the TGI [28] was > 100 µM, the TGI [29] was > 100 µM and the TGI [30] was > 100 µM. For the same molecule, the TGI [31] was > 100 µM, the TGI [32] was > 100 µM and the TGI [33] was > 100 µM. For the same molecule, the TGI [34] was > 100 µM, the TGI [35] was > 100 µM and the TGI [36] was > 100 µM. For the same molecule, the TGI [37] was > 100 µM, the TGI [38] was > 100 µM and the TGI [39] was > 100 µM. The TGI [40] was > 100 µM, the TGI [41] was > 100 µM and the TGI [42] was > 100 µM. For the same molecule, the TGI [43] was > 100 µM, the TGI [44] was > 100 µM and the TGI [45] was > 100 µM. For the same molecule, the TGI [46] was > 100 µM, the TGI [47] was > 100 µM and the TGI [48] was > 100 µM. For the same molecule, the TGI [49] was > 100 µM, the TGI [50] was > 100 µM and the TGI [51] was > 100 µM. The TGI [52] was > 100 µM, the TGI [53] was > 100 µM and the TGI [54] was > 100 µM. The TGI [55] was > 100 µM.
With CC(=O)NNc1nc(C)c(C(=O)NNC(=O)C(=O)Nc2ccc([N+](=O)[O-])cc2C#N)s1 the TGI [1] was > 100 µM, the TGI [2] was > 100 µM and the TGI [3] was > 100 µM. For the same molecule, the TGI [4] was > 100 µM, the TGI [5] was > 100 µM and the TGI [6] was > 100 µM. The TGI [8] was > 100 µM, the TGI [9] was > 100 µM and the TGI [10] was > 100 µM. The TGI [11] was > 100 µM, the TGI [12] was > 100 µM and the TGI [13] was > 100 µM. The TGI [14] was > 100 µM, the TGI [16] was > 100 µM and the TGI [18] was > 100 µM. For the same molecule, the TGI [19] was > 100 µM, the TGI [20] was > 100 µM and the TGI [21] was > 100 µM. The TGI [22] was > 100 µM, the TGI [23] was > 100 µM and the TGI [24] was > 100 µM. For the same molecule, the TGI [25] was > 100 µM, the TGI [26] was > 100 µM and the TGI [27] was > 100 µM. For the same molecule, the TGI [28] was > 100 µM, the TGI [29] was > 100 µM and the TGI [30] was > 100 µM. The TGI [31] was > 100 µM, the TGI [32] was > 100 µM and the TGI [33] was > 100 µM. The TGI [34] was > 100 µM, the TGI [56] was > 100 µM and the TGI [35] was > 100 µM. For the same molecule, the TGI [36] was > 100 µM, the TGI [38] was > 100 µM and the TGI [40] was > 100 µM. For the same molecule, the TGI [41] was > 100 µM, the TGI [42] was > 100 µM and the TGI [57] was > 100 µM. For the same molecule, the TGI [43] was > 100 µM, the TGI [44] was > 100 µM and the TGI [45] was > 100 µM. For the same molecule, the TGI [47] was > 100 µM, the TGI [48] was > 100 µM and the TGI [49] was > 100 µM. The TGI [50] was > 100 µM, the TGI [51] was > 100 µM and the TGI [52] was > 100 µM. The TGI [53] was > 100 µM, the TGI [54] was > 100 µM and the TGI [55] was > 100 µM.
C#CCN(C(=O)C(F)(F)F)c1ccc(C(=O)c2ccc(N(CC#C)C(=O)C(F)(F)F)cc2)cc1 was tested, and the TGI [1] was > 100 µM, the TGI [3] was > 100 µM and the TGI [4] was > 100 µM. The TGI [5] was > 100 µM, the TGI [6] was 92.5 µM and the TGI [7] was > 100 µM. For the same molecule, the TGI [8] was 55.1 µM, the TGI [9] was 63.9 µM and the TGI [10] was > 100 µM. For the same molecule, the TGI [11] was > 100 µM, the TGI [12] was > 100 µM and the TGI [13] was 79.9 µM. For the same molecule, the TGI [14] was 40.3 µM, the TGI [16] was > 100 µM and the TGI [17] was 81 µM. For the same molecule, the TGI [18] was 45.4 µM, the TGI [19] was > 100 µM and the TGI [20] was 62.9 µM. The TGI [21] was > 100 µM, the TGI [22] was > 100 µM and the TGI [24] was > 100 µM. For the same molecule, the TGI [25] was > 100 µM, the TGI [26] was > 100 µM and the TGI [27] was > 100 µM. The TGI [28] was 64.9 µM, the TGI [30] was 71.6 µM and the TGI [31] was > 100 µM. The TGI [32] was 49.4 µM, the TGI [33] was 88.6 µM and the TGI [34] was > 100 µM. The TGI [56] was > 100 µM, the TGI [35] was > 100 µM and the TGI [36] was 51.2 µM. For the same molecule, the TGI [37] was > 100 µM, the TGI [38] was > 100 µM and the TGI [39] was > 100 µM. For the same molecule, the TGI [40] was > 100 µM, the TGI [41] was 87.9 µM and the TGI [42] was > 100 µM. For the same molecule, the TGI [57] was > 100 µM, the TGI [44] was > 100 µM and the TGI [45] was > 100 µM. For the same molecule, the TGI [46] was > 100 µM, the TGI [47] was > 100 µM and the TGI [49] was > 100 µM. The TGI [50] was > 100 µM, the TGI [51] was > 100 µM and the TGI [52] was 86.6 µM. The TGI [53] was 54.1 µM and the TGI [54] was > 100 µM.
